Series [1] has as its system human promyelocytic leukemia HL-60 cells. Description: WST-1 cell proliferation assay, HL-60 cells. The format is cell-based. The conditions noted are these: WST-1, 72 h; for IC50: concentrations 50-200 µM, mean ± SD, na = not active in range tested. The protocol:
(§1) Human promyelocytic leukemia HL-60 cells and human colon cancer cell line Caco-2 were obtained from the American Type Culture Collection (Manassas, VA, USA). […] (Institute of Biotechnology, Faculty of Environment and Natural Sciences, Brandenburg University of Technology Cottbus-Senftenberg, Senftenberg, Germany)[34] were cultured in DMEM medium supplemented with 10% fetal bovine serum (FBS, Invitrogen, Carlsbad, USA), 2 mM glutamine and antibiotics (complete DMEM). Cells (4 × 10^3/well) were grown for 24 h in 96-well plates (Sarstedt, Germany) in appropriate complete medium at 37 °C and atmosphere containing 5% CO2. […] After indicated periods of time, WST-1 mixture was added to each well, and the cells were cultured for additional 6 h. The absorbance at 450 nm was measured on an EnSpire 2300 Multilabel Reader (Perkin-Elmer, USA), and data were analyzed using the program EnSpire 9.0 (Perkin-Elmer, USA). The experiments were performed in triplicates and repeated at least three times independently.

In series [2] the test system is human colon carcinoma Caco-2 cells. Description: WST-1 cell proliferation assay, Caco-2 cells. It is filed as cell-based. The conditions noted are these: WST-1, 72 h; for IC50: concentrations 50-200 µM, mean ± SD, na = not active in range tested. The protocol:
as §1
(Formazan colour is commonly taken as a measure of viable cells.)

Series [3] relates to porcine epithelial intestinal IPEC-J2 cells. Nature of the series: WST-1 cell proliferation assay, IPEC-J2 cells. It is filed as cell-based. Particulars: Sus scrofa, WST-1, 72 h, concentrations 50-200 µM, mean ± SD, na = not active in range tested. The protocol: as §1, with “independently. Results were presented as mean IC50 (concentration of the tested compound, that inhibits cell proliferation by 50%) ± standard deviation.” for “independently.”

A short description of the next series: Solubility in DMSO. The format is physicochemical. Particulars: the reason cytotoxicity was not tested.

The term IC50 denotes the point on the concentration scale where inhibition reaches its midpoint. Lower therefore signals inhibition by little substance. Regarding `CCCCCCCCCCCCCCCC(=O)O[C@H](COC(=O)C(C)c1ccc(CC(C)C)cc1)COP(=O)([O-])OCC[N+](C)(C)C` (mixture of isomers) [Compound 9, 1-[2′-(4″-Isobutylphenyl)]propanoyl-2-palmitoyl-sn-glycero-3-phosphocholine], the IC50 stood at 67.1 ± 10.9 µM in series [1] and 125 ± 3.87 µM in series [2].
In series [1], `CCCCCCCCCCCCCCCC(=O)O[C@H](COC(=O)C(C)c1ccc2cc(OC)ccc2c1)COP(=O)([O-])OCC[N+](C)(C)C` (mixture of isomers) [Compound 10, 1-[2′-(6″-Methoxynaphthalenyl)]propanoyl-2-palmitoyl-sn-glycero-3-phosphocholine] registered an IC50 of 27.1 ± 5.13 µM. In series [2], the “concentration up to which non-toxic, Caco-2 cells” value was at most 200 µM.
In the case of `CCCCCCCCCCCCCCCC(=O)OC[C@H](COP(=O)([O-])OCC[N+](C)(C)C)OC(=O)C(C)c1ccc(CC(C)C)cc1` (mixture of isomers) [Compound 12, 1-Palmitoyl-2-[2′-[4″-isobutylphenyl)]propanoyl-sn-glycero-3-phosphocholine], the IC50 in series [1] (Homo sapiens, HL-60) stood at 77.4 ± 18.2 µM; in series [2] (Homo sapiens, Caco-2) it was 135 ± 18.2 µM; in series [3] it was 79.2 ± 7.86 µM.
As for `CC(C)Cc1ccc(C(C)C(=O)OC[C@H](COP(=O)([O-])OCC[N+](C)(C)C)OC(=O)C(C)c2ccc(CC(C)C)cc2)cc1` (mixture of isomers) [Compound 15, 1,2-Di-[2′-(4″-isobutylphenyl)]propanoyl-sn-glycero-3-phosphocholine], the IC50 in series [1] (Homo sapiens, HL-60) was 64.5 ± 10.4 µM; in series [2] (Homo sapiens, Caco-2) it was 81.3 ± 17.3 µM; in series [3], 83.4 ± 1.51 µM.
With `COc1ccc2cc(C(C)C(=O)OC[C@H](COP(=O)([O-])OCC[N+](C)(C)C)OC(=O)C(C)c3ccc4cc(OC)ccc4c3)ccc2c1` (mixture of isomers) [Compound 16, 1,2-Di-[2′-(6″-methoxynaphthalenyl)]propanoyl-sn-glycero-3-phosphocholine], the IC50 amounted to 80.1 ± 10.9 µM in series [1] (Homo sapiens, HL-60); 68.7 ± 18.4 µM in series [2] (Homo sapiens, Caco-2); 58.4 ± 5.67 µM in series [3].
For `CC(C)Cc1ccc(C(C)C(=O)O)cc1` (centres unmarked) [Compound 1, ibuprofen, reference compound], the half-inhibitory concentration (IC50) in series [1] (Homo sapiens, HL-60) came out at 106 ± 17.4 µM; in series [2] (Homo sapiens, Caco-2), 114 ± 10.4 µM; in series [3], 155 ± 7.57 µM. In addition, the “concentration up to which non-toxic, HL-60 cells” value in series [1] was at most 100 µM.
Consider `COc1ccc2cc([C@H](C)C(=O)O)ccc2c1` [Compound 2, naproxen, reference compound], for which the IC50 worked out at 141 ± 8.51 µM in series [1] (Homo sapiens, HL-60) and 78.6 ± 15.9 µM in series [3].
Turning to `CC(C)Cc1ccc([C@H](C)C(=O)OC[C@@H](O)COP(=O)([O-])OCC[N+](C)(C)C)cc1` [Compound 7, 1-[2′S-(4″-Isobutylphenyl)]propanoyl-2-hydroxy-sn-glycero-3-phosphocholine], the “concentration up to which non-toxic, HL-60 cells” value in series [1] turned out to be 200 µM. In addition, the IC50 in series [2] came out at 122 ± 2.76 µM.
Consider `COc1ccc2cc([C@H](C)C(=O)OC[C@@H](O)COP(=O)([O-])OCC[N+](C)(C)C)ccc2c1` [Compound 8, 1-[2′S-(6″-Methoxynaphthalenyl)]propanoyl-2-hydroxy-sn-glycero-3-phosphocholine], for which, in series [2], 115 ± 26.1 µM corresponded to half-maximal inhibition (IC50).
For the molecule `CCCCCCCCCCCCCCCC(=O)OC[C@H](COP(=O)([O-])OCC[N+](C)(C)C)OC(=O)C(C)c1ccc2cc(OC)ccc2c1` (stereo partly drawn) [Compound 13, 1-Palmitoyl-2-[2′S-(6″-methoxynaphthalenyl)]propanoyl-sn-glycero-3-phosphocholine], the “solubility in DMSO” value in the series “Solubility in DMSO” is listed as “poor solubility”.

Values taken from publication PMC6338774 (Scientific Reports, 2019).
